According to PubChem BioAssay (NCI):
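Compound exposure: 48 hours, 5 concentrations, 96-well plates. GI50 marks 50% less growth. TGI: concentration producing complete growth inhibition.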

What was measured:
Experiment in all cases: NCI tumour cell line growth inhibition, 48 h
EKVX NSCLC = test system: EKVX NSCLC
OVCAR-5 ovarian = test system: OVCAR-5 ovarian
PC-3 prostate = test system: PC-3 prostate
ACHN renal = test system: ACHN renal
SF-268 CNS = test system: SF-268 CNS
NCI-H522 lung = test system: NCI-H522 lung
UO-31 renal = test system: UO-31 renal
HL-60(TB) leukemia = test system: HL-60(TB) leukemia
HT29 colon = test system: HT29 colon
BT-549 breast = test system: BT-549 breast

Structure (SMILES) | GI50 (EKVX NSCLC) [µM] | TGI (EKVX NSCLC) [µM] | GI50 (OVCAR-5 ovarian) [µM] | TGI (OVCAR-5 ovarian) [µM] | GI50 (PC-3 prostate) [µM] | TGI (PC-3 prostate) [µM] | GI50 (ACHN renal) [µM] | TGI (ACHN renal) [µM] | GI50 (SF-268 CNS) [µM] | TGI (SF-268 CNS) [µM] | GI50 (NCI-H522 lung) [µM] | TGI (NCI-H522 lung) [µM] | GI50 (UO-31 renal) [µM] | TGI (UO-31 renal) [µM] | GI50 (HL-60(TB) leukemia) [µM] | TGI (HL-60(TB) leukemia) [µM] | TGI (HT29 colon) [µM] | GI50 (HT29 colon) [µM] | GI50 (BT-549 breast) [µM] | TGI (BT-549 breast) [µM]
Cc1cc(N2CCOCC2)nc(N(CCNc2ccnc3cc(Cl)ccc23)Cc2cccs2)n1 | 2.79 | 44 | 2.19 | 4.73 | 1.8 | 4.84 | 1.91 | 3.79 | 3.27 | 10.6 | 1.72 | 3.72 | 1.39 | 2.75 | 1.95 | 3.83 | – | – | – | –
CC(=O)NC(Cc1ccccc1)C(=S)N1CCCC1 (centres undefined) | – | > 100 | – | > 100 | – | – | – | > 100 | – | > 100 | – | > 100 | – | > 100 | – | > 100 | > 100 | – | – | –
O=C(Cc1nc2ccccc2s1)C(=O)Nc1ccccc1C(F)(F)F | – | > 100 | – | > 100 | – | – | – | > 100 | – | > 100 | – | > 100 | – | > 100 | – | > 100 | > 100 | – | – | –
NCCN.O=N[O-].O=N[O-].O=N[O-].O=N[O-].[Co+3].[K+] | > 100 | > 100 | > 100 | > 100 | – | – | > 100 | > 100 | > 100 | > 100 | > 100 | > 100 | > 100 | > 100 | > 100 | > 100 | > 100 | > 100 | – | –
Cc1ccc(S(=O)(=O)NC2(C=O)CCC(C(C)(C)C)CC2)cc1 (centres undefined) | – | > 100 | – | > 100 | – | – | – | > 100 | – | > 100 | – | 54.9 | – | > 100 | – | 42.9 | > 100 | – | – | –
CCc1cccc(C(C)C)c1C1C(=O)C(=O)N(c2nc3ccccc3s2)C(=O)C1=O | – | > 100 | – | > 100 | – | – | – | > 100 | – | > 100 | – | – | – | > 100 | – | > 100 | > 100 | – | – | –
O=C(/C=C\c1ccc(Cl)c(Cl)c1)c1ccccc1 | – | – | 15.3 | 31.3 | 5.93 | 20.7 | 7.65 | 20.5 | 11.1 | 24.7 | 10.2 | 22.2 | 4.09 | 16.7 | 5.46 | 29.1 | 5.37 | 2.27 | 9.85 | 22
Cc1nn(C(=O)CC(=O)Nc2ccccc2Cl)c(C)c1N=Nc1ccccc1Cl | – | > 100 | – | > 100 | – | – | – | > 100 | – | > 100 | – | – | – | > 100 | – | > 100 | > 100 | – | – | –
O=[N+]([O-])c1ccc(-c2ccc(C3=Nn4c(nnc4-c4ccc(Cl)cc4)SC3)o2)cc1 | – | > 100 | – | > 100 | – | – | – | > 100 | – | > 100 | – | > 100 | – | > 100 | – | > 100 | > 100 | – | – | –
COc1ccc(/C=C2\CN(Cc3cn(CCCNc4ccnc5cc(Cl)ccc45)nn3)C/C(=C\c3ccc(OC)cc3)C2=O)cc1 | – | – | 21 | 44.2 | 2.9 | 17 | 12.9 | 25.6 | 3.45 | 16.9 | 10.3 | 21.9 | 3.85 | 21.4 | 3.27 | 18.2 | 6.38 | 1.82 | 3.78 | 12.9
